{
  "source": "patent US20090044291A1",
  "about": "“DROUGHT-RESISTANT PLANTS AND METHOD FOR PRODUCING THE PLANTS” (D-Helix, priority 2006, published 2009)",
  "key": {"ABAR": {"target": "T1, ABAR (Arabidopsis thaliana, UniProt Q9FNB0)", "T1 construct": "6xHis; made in house; host or cells: transgenic yeast (Pichia methanolica), cell-free protein extracts", "assay": "Preliminary ABA binding experiment with transgenic yeast extracts expressing ABAR cDNA"}, "gl1 seedlings": {"tested_on": "gl1 seedlings", "assay": "Effects of ABA in vivo on chlorophyll, porphyrins and ABAR/CHLH protein", "design": "species or system Arabidopsis thaliana", "details": "exogenous ABA treatment, 10 d", "description": "The contents of chlorophyll, protoporphyrin IX and Mg-protoporphyrin IX were assayed essentially by the previously described procedures (Mochizuki, N. et al., Proc. Natl. Acad. Sci. USA 98:2053-2058 (2001)).\nFor the effects of ABA in vivo, the seeds of the ecotype gl1 were germinated after stratification on common MS medium and 48 h later transferred to MS medium supplemented with different concentrations of ABA. 10 d later, the contents of chlorophyll and porphyrins including of protoporphyrin IX and Mg-protoporphyrin IX were measured. At the same time total proteins were extracted from leaves for testing the amounts of ABAR/CHLH protein by immunoblotting."}, "[1]": {"tested_on": "C-terminal portion of the broad bean ABAR or CHLH", "assay": "ABA binding to yeast-expressed C-terminal fragment of broad bean ABAR", "design": "species or system Vicia faba", "details": "data not shown", "source_text": "So we designated it ABAR (for putative abscisic acid receptor). On the basis of the sequencing information, we isolated from broad bean leaves a complementary DNA fragment encoding the carboxy-terminal half of about 770 amino acids of the putative H subunit (CHLH) of the magnesium-protoporphyrin-IX chelatase (Mg-chelatase). CHLH has been reported to have multiple functions in plant cells. In addition to its enzymatic functions as a subunit of the Mg-chelatase in producing photosynthetic apparatus (Walker, C. J. et al., Biochem. J. 327:321-333 (1997)), CHLH has a key function in mediating plastid-to-nucleus signaling (Mochizuki, N. et al., Proc. Natl. Acad. Sci. USA 98:2053-2058 (2001); Surpin, M., et al., Plant Cell S327-S338 (2002); Strand, A., et al., Nature 421:79-83 (2003); Nott, A. et al., Annu. Rev. Plant Biol. 57:730-759 (2006)). […] The information from Vicia faba led us to analyse the functions of ABAR in ABA signalling in Arabidopsis thaliana."}, "Mg-chelatase": {"target": "T2, Mg-chelatase (Arabidopsis thaliana, UniProt Q9FNB0)", "T2 construct": "isolation of intact chloroplasts from 3-week-old gl1 plants; from tissue; host or cells: intact chloroplasts from 3-week-old Arabidopsis gl1 plants", "T2 sequence (Q9FNB0 50-1381)": "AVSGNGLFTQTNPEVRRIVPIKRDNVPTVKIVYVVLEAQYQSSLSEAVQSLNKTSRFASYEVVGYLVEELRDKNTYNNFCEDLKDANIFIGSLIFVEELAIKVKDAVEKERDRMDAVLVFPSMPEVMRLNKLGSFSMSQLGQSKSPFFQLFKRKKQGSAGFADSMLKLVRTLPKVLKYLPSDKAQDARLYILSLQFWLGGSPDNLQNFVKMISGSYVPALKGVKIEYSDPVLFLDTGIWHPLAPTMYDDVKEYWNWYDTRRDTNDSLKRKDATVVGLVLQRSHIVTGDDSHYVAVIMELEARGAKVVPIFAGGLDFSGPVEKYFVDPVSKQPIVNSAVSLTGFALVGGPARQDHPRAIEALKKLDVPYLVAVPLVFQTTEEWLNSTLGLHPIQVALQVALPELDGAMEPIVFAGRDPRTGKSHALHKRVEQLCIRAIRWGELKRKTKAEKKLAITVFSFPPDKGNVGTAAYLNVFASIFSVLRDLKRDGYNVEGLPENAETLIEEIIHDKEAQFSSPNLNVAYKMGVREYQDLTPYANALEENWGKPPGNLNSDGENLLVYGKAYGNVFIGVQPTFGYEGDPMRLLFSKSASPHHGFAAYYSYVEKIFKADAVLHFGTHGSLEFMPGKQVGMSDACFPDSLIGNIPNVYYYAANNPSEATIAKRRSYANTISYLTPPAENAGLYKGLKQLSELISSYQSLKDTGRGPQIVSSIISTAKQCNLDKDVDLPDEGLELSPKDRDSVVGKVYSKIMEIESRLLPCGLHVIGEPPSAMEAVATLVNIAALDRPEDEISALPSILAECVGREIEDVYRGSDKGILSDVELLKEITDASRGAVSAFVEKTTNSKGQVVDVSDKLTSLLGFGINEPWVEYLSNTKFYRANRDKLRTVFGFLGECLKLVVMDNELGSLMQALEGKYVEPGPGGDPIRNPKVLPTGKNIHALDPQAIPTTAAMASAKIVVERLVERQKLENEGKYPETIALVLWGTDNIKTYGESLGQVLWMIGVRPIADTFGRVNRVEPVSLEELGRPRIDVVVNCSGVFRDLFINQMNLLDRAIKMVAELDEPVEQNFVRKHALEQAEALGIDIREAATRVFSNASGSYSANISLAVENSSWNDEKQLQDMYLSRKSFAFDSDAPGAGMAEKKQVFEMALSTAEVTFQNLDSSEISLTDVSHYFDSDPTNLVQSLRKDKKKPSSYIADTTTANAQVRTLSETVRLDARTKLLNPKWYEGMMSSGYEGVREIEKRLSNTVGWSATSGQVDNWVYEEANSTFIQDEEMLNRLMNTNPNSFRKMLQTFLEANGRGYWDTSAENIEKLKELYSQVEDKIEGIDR", "assay": "Effects of ABA on Mg-chelatase activity in isolated chloroplasts", "format": "biochemical", "details": "chloroplasts pre-incubated 20 min with (±)-ABA", "description": "For the effects of ABA on Mg-chelatase activity in vitro, isolation of intact chloroplasts from 3-week-old gl1 plants and assays of both […] and Mg-chelatase activity were done essentially according to the method of Walker and Weinstein (Walker, C. J. et al., Plant Physiol. 95:1189-1196 (1991); Walker, C. J. et al., Proc. Natl. Acad. Sci. USA 88:5789-5793 (1991)). Briefly, the purified chloroplasts with high degree of intactness were pre-incubated for 20 min in the chloroplast isolation buffer supplemented with different concentrations of (±)-ABA. For assaying Mg-chelatase activity, reactions were started by addition of the ABA-pretreated plastids and terminated by addition of ice-cold acetone. All the manipulations were performed under dim light to prevent porphyrin-mediated photooxidative damage. After centrifugation, the green supernatant was reserved and diluted with 4 ml of 75% (v/v) acetone. The fluorescence of the product was read directly in this acetone extract."}},
  "note": "pKd: −log10 of the molar value. Entries after “also recorded” stand apart in the source; their conditions may differ.",
  "data": [
    {"smiles": "CC1=CC(=O)CC(C)(C)C1(O)/C=C/C(C)=C\\C(=O)O", "note": "(stereo not shown) [ABA, abscisic acid]", "values": [
      {"measurement": "pKd", "setting": "ABAR", "value": 7.44},
      {"measurement": "MgProto contents", "setting": "gl1 seedlings", "value": "enhances"},
      {"measurement": "Proto contents", "setting": "gl1 seedlings", "value": "significantly decreased; also recorded: decreases"},
      {"measurement": "chlorophyll contents", "setting": "gl1 seedlings", "value": "significantly decreased; also recorded: decreases"},
      {"measurement": "ABAR expression (protein levels)", "setting": "gl1 seedlings; immunoblotting", "value": "stimulated; also recorded: enhances"},
      {"measurement": "ABA binding", "setting": "[1]", "value": "binds ABA specifically"},
      {"measurement": "Mg-chelatase activity", "setting": "Mg-chelatase", "value": "stimulated; also recorded: enhances"}
    ]}
  ]
}
